From article PMC6522912, “Evaluation of the published kinase inhibitor set to identify multiple inhibitors of bacterial ATP-dependent mur ligases” (Journal of Enzyme Inhibition and Medicinal Chemistry, 2019)
Read-outs that look alike come from different tables or passages of the source.

Tests used:
E. coli MurC = E. coli MurC (Escherichia coli, UniProt P17952); assay: Malachite green inhibition assay, MurC; assay type: biochemical; settings: for remaining activity at 100 µM: 0.25 h
E. coli MurF = E. coli MurF (Escherichia coli, UniProt P11880); assay: biochemical; settings: Table S1, PKIS screening; for remaining activity at 100 µM: 0.25 h, read-out: RA [%] at 100 µM MurF
E. coli MurF, sequence (P11880 whole entry): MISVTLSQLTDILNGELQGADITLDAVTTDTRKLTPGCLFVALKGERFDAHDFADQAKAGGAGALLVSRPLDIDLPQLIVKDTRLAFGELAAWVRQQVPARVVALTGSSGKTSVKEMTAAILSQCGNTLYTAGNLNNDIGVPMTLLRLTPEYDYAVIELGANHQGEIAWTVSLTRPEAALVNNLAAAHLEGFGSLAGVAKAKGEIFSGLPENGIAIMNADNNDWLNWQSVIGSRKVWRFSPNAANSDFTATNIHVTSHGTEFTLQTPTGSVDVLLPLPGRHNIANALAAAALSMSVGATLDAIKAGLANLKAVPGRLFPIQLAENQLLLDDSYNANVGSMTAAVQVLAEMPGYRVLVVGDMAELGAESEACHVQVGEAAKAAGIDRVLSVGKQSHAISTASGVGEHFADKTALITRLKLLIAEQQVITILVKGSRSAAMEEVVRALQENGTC

E. coli MurD = E. coli MurD (Escherichia coli, UniProt P14900); assay: biochemical; settings: for remaining activity at 100 µM: 0.25 h, Table S1, PKIS screening, read-out: RA [%] at 100 µM MurD
E. coli MurD, sequence (P14900 whole entry): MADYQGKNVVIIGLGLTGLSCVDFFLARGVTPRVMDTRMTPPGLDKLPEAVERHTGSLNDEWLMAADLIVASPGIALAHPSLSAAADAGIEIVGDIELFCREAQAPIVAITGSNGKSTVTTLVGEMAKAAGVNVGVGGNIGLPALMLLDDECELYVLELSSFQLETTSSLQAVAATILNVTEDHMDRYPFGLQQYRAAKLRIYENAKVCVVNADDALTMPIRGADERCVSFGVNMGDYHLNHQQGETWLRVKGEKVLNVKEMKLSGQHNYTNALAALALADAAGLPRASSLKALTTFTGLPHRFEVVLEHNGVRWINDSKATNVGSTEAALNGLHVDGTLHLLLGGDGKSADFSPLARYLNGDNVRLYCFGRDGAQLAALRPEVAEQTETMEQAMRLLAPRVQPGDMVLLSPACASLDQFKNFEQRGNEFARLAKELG
Outline: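 Reaction 15 min at 37 °C, then phosphate detected with Biomol green at 650 nm. Values are residual activity versus 5% DMSO carrier controls.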

[1] = Table S1, PKIS screening, read-out: RA [%] at 100 µM MurC
[2] = read-out: RA [%] at 100 µM MurC, Table S1, PKIS screening

E. coli MurC, sequence (P17952 whole entry): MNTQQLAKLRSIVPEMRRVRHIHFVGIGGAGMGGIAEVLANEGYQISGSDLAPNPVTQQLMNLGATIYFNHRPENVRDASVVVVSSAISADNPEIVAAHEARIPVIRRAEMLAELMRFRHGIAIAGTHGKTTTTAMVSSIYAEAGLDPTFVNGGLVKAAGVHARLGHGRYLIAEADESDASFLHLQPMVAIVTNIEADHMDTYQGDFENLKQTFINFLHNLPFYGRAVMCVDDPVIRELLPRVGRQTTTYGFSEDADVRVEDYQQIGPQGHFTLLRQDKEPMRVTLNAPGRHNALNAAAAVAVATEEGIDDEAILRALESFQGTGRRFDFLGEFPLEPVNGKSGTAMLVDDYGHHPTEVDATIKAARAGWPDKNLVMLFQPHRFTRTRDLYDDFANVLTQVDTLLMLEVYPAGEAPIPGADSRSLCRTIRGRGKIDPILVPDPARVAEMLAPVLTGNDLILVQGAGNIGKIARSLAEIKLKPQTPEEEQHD

Structure (SMILES)	remaining activity at 100 µM (E. coli MurC; [1]) [%]	remaining activity at 100 µM (E. coli MurF) [%]	remaining activity at 100 µM (E. coli MurD) [%]	remaining activity at 100 µM (E. coli MurC; [2]) [%]	RA [%] at 100 µM MurC (E. coli MurC; Table S1, PKIS screening) [%]	RA [%] at 100 µM MurF (E. coli MurF) [%]	RA [%] at 100 µM MurD (E. coli MurD)
FC(F)(F)c1cccc(Nc2nccc(-c3cnn4nc(-c5ccccc5)ccc34)n2)c1 [GW819077X]	50	58	63	–	–	–	–
Cc1ccc(C(=O)NC2CC2)cc1-c1ccc2[nH]ncc2c1 [GW820759X]	63	86	100	–	–	–	–
COc1ccc(-c2nn3ncccc3c2-c2ccnc(Nc3ccc4c(c3)OCCO4)n2)cc1 [GW827106X]	–	49	32	13	–	–	–
COc1ccc(-c2nn3ncccc3c2-c2ccnc(Nc3ccc(F)c(F)c3)n2)cc1 [GW827396X]	79	61	61	–	–	–	–
FC(F)(F)c1ccc(-c2nn3ncccc3c2-c2ccnc(Nc3ccc4c(c3)OCCO4)n2)cc1 [GW828525X]	–	47	90	21	–	–	–
COc1cccc(/C=N/Nc2ncnc3c2cnn3-c2cccc(OC)c2)c1 [GW829874X]	69	85	78	–	–	–	–
COc1cccc(-n2ncc3c(N/N=C/c4ccc(C)cc4)ncnc32)c1 [GW829877X]	70	76	85	–	–	–	–
CN1CCN(C(=O)c2ccc(NC(=O)Nc3ccc(N(C)c4ccnc(Nc5ccc(CS(C)(=O)=O)cc5)n4)cc3)cc2)CC1 [GW830263A]	51	73	69	–	–	–	–
CN(C)CCNC(=O)Nc1ccc(N(C)c2ccnc(Nc3ccc(CS(C)(=O)=O)cc3)n2)cc1 [GW830900A]	74	75	91	–	–	–	–
Cc1ccc2c(-c3ccnc(Nc4ccc5c(c4)OCCO5)n3)c(-c3ccc(C(F)(F)F)cc3)nn2n1 [GW832467X]	–	73	62	22	–	–	–
COc1cc2ncn(-c3cc(OCc4ccccc4C(F)(F)F)c(C(N)=O)s3)c2cc1OC [GW843682X]	65	83	82	–	–	–	–
COc1cc2ncn(-c3cc(OCc4ccccc4Cl)c(C(N)=O)s3)c2cc1OC [GW852849X]	67	85	81	–	–	–	–
NC(=O)c1sc(-n2cnc3ccc(C(F)(F)F)cc32)cc1OCc1ccccc1Br [GW853606X]	64	75	86	–	–	–	–
Nc1ncc(-c2cccc(S(N)(=O)=O)c2)c2scc(-c3ccc(F)c(Cl)c3)c12 [GW856804X]	64	71	75	–	–	–	–
O=C(O[C@H]1CN[C@H](C#Cc2cc3ncnc(Nc4ccc(OCc5cccc(F)c5)c(Cl)c4)c3s2)C1)N1CCOCC1 [GW869810X]	65	77	55	–	–	–	–
Fc1ccc(-c2ncn(CCCN3CCOCC3)c2-c2ccncc2)cc1 [SB-210313]	100	100	91	–	–	–	–
Nc1nccc(-c2c(-c3ccc(F)cc3)ncn2CCCN2CCOCC2)n1 [SB-216385]	77	98	96	–	–	–	–
Nc1nccc(-c2c(-c3ccc(F)cc3)ncn2C2CCNCC2)n1 [SB-220025-A]	–	–	–	–	98	96	99
Nc1nccc(-c2c(-c3ccc(F)cc3)ncn2C2CCNCC2)n1 [SB-220025-R#3]	–	–	–	–	81	100	87
CN1CCC(n2cnc(-c3ccc(F)cc3)c2-c2ccnc(N)n2)CC1 [SB-220455]	–	100	81	76	–	–	–
CC1(C)CC(n2cnc(-c3ccc(F)cc3)c2-c2ccnc(N)n2)CC(C)(C)N1 [SB-221466]	91	100	93	–	–	–	–
Nc1nccc(-c2c(-c3ccc(F)cc3)ncn2C2CCC(O)CC2)n1 (stereo not drawn) [SB-223133]	64	88	87	–	–	–	–
CN1CCC(n2cnc(-c3ccc(F)cc3)c2-c2ccnc(NCCO)n2)CC1 [SB-226879]	–	68	98	65	–	–	–
CN1CCC(n2cnc(-c3ccc(F)cc3)c2-c2ccnc(Nc3ccccc3)n2)CC1 [SB-236687]	79	67	90	–	–	–	–

Structure (SMILES)	remaining activity at 100 µM (E. coli MurC; [1]) [%]	remaining activity at 100 µM (E. coli MurF) [%]	remaining activity at 100 µM (E. coli MurD) [%]	remaining activity at 100 µM (E. coli MurC; [2]) [%]	RA [%] at 100 µM MurC (E. coli MurC; Table S1, PKIS screening) [%]	RA [%] at 100 µM MurF (E. coli MurF) [%]	RA [%] at 100 µM MurD (E. coli MurD)
Fc1ccc(-c2ncn(C3CCNCC3)c2-c2ccnc(Oc3ccccc3)n2)cc1 [SB-239272]	100	75	67	–	–	–	–
NC(=O)c1ccc(Oc2nccc(-c3c(-c4ccc(F)cc4)ncn3C3CCNCC3)n2)cc1 [SB-242718]	39	69	65	–	–	–	–
CCc1ccc(Oc2nccc(-c3c(-c4ccc(F)cc4)ncn3C3CCNCC3)n2)cc1 [SB-242719]	–	80	87	51	–	–	–
Fc1ccc(-c2ncn(C3CCNCC3)c2-c2ccnc(Oc3ccc(Oc4ccccc4)cc3)n2)cc1 [SB-245392]	27	41	41	–	–	–	–
Fc1ccc(-c2ncn(C3CCNCC3)c2-c2ccnc(Oc3ccc4c(c3)OCO4)n2)cc1 [SB-250715]	–	85	65	51	–	–	–
Fc1ccc(-c2ncn(C3CCNCC3)c2-c2ccnc(Oc3ccc(F)c(F)c3)n2)cc1 [SB-253228]	32	70	40	–	–	–	–
NC(=O)Cc1ccccc1Oc1nccc(-c2c(-c3ccc(F)cc3)ncn2C2CCNCC2)n1 [SB-264865]	66	98	82	–	–	–	–
O=C1NC(=O)C(N2CCc3ccccc32)=C1c1ccc(Cl)cc1 [SB-333612]	100	100	96	–	–	–	–
N#Cc1c(NC(=O)c2ccc(F)cc2)sc2c1CCCC2 [SB-347804]	87	100	78	–	–	–	–
O=C1NC(=O)C(c2ccc(Cl)cc2)=C1Nc1ccc(Cl)c(C(=O)O)c1 [SB-360741]	84	83	86	–	–	–	–
COc1ccc(C2=C(N3CCc4ccccc43)C(=O)NC2=O)cc1 [SB-361058]	100	97	100	–	–	–	–
O=C1NC(=O)C(c2ccccc2Cl)=C1Nc1cccc(O)c1 [SB-390527]	50	88	83	–	–	–	–
O=C1NC(=O)C(c2cccc(Cl)c2)=C1Nc1ccc(Cl)c(C(=O)O)c1 [SB-409513]	94	78	88	–	–	–	–
NC(=O)c1ccc(-c2nc(-c3ccc4c(c3)OCO4)c(-c3ccccn3)[nH]2)cc1 [SB-431542-A]	–	–	–	–	59	100	90
COc1ccc2cc(-c3c(-c4ccncc4)nc(-c4ccc([S+](C)[O-])cc4)n3C)ccc2c1 (stereo not drawn) [SB-437013]	70	70	58	–	–	–	–
CN(C)CCOc1ccc(-c2nc(-c3ccncc3)c(-c3ccc4c(c3)CC/C4=N\O)[nH]2)cc1 [SB-590885-AAD]	–	–	–	–	74	100	100
Cl.Oc1cccc(-c2nc(-c3ccccc3)[nH]c2-c2ccncc2)c1 [SB-610251-B]	–	–	–	–	74	96	13
COc1ccc2cc(-c3c(-c4ccncc4)nc(-c4ccc(S(C)(=O)=O)cc4C)n3C)ccc2c1 [SB-633825]	36	56	69	–	–	–	–
CN1CCC(C(=O)Nc2n[nH]c3nnc(-c4ccccc4)cc23)CC1.Cl [SB-678557-A]	–	–	–	–	74	95	76
CN(C)CCOc1ccc(-c2cc(-c3ccc4c(c3)CCC4=NO)c(-c3ccncc3)o2)cc1.Cl [SB-682330-A]	–	–	–	–	31	57	51
O=C(Nc1n[nH]c2nc(-c3ccc(O)cc3)c(Br)cc12)C1CC1 [SB-725317]	84	89	96	–	–	–	–
CN1CCC(C(=O)Nc2n[nH]c3nc(-c4ccc(O)cc4)c(Br)cc23)CC1 [SB-732881]	71	90	84	–	–	–	–
O=C(Nc1n[nH]c2cc(-c3ccccc3)ccc12)C1CC1 [SB-732941]	80	86	79	–	–	–	–
Nc1nonc1-c1nc2cnccc2n1C1CCCCC1 [SB-734117]	100	93	79	–	–	–	–
